Assay results: US20070239107A1, “Device and Method for Administering Therapeutic Agents” (priority 2003, published 2007)

Experiments:
[1] = tested on: E. coli; test: Comparative experiment with traditional antibiotic in retention balloon or directly in urine
Experimental: An overnight culture was added to 25 ml of urine to a final density of 10^5 CFU/ml. The urine was placed in long-necked 50 ml flasks with a shape resembling the urinary bladder and the urethra. An all-silicone catheter (Argyle, Sherwood Medical, Tullamore, Ireland) was placed in the flask and the retention balloon was filled with 10 ml of saline containing ascorbic acid (10 mM) and sodium nitrite (5 mM). The pH of the solution was adjusted to 2.5 using hydrochloric acid (3 M). Ascorbic acid and nitrite were prepared and mixed immediately before administration. Ascorbic acid solution alone (pH 2.5) was used as control. After filling the retention balloons the catheter was gently pulled outwards and fixed at the neck whereby the flask opening was sealed off. Then the flasks were turned up side down and incubated at 37° C. for 24 h. At the end of the experiment the urine was serially diluted and further cultured on blood agar plates for determination of viable counts (cfu/ml). All experiments were made in quadruplicate.
In a separate flask ciprofloxacin was added directly to the urine.

[2] = tested on: E. coli isolated from a patient with urinary tract infection and E. coli ATCC 25992; test: Viable counts of E. coli in urine surrounding the filled retention balloon; format: cell-based; conditions: solution in retention balloon, start 10^5 cfu/ml, 37° C.
[3] = Kinetics of NO release from the retention balloon (headspace chemiluminescence); format: physicochemical; conditions: balloon filled with ascorbic acid/nitrite solution; NO-free air flush 4.5 L/min
Excerpt: The kinetics of NO release from the retention balloon was monitored in separate experiments. The catheter was placed in the flask and after filling the retention balloon with the ascorbic acid/nitrite solution the flask was closed. Synthetic NO-free air was flushed via an inlet at a rate of 4.5 L/min and headspace NO was continuously measured from an outlet by a rapid-response chemiluminescence system (Aerocrine AB, Stockholm, Sweden).

Q: For `O=C(O)c1cn(C2CC2)c2cc(N3CCNCC3)c(F)cc2c1=O` [ciprofloxacin], which “antibacterial effect in urine” value ([1]; antibiotic added directly to the urine) is on record?
A: effectively killed the bacteria

Q: And the “antibacterial effect in the urine surrounding the balloon” value ([1]; antibiotic placed in the retention balloon)?
A: no antibacterial effect

Q: Which “bacterial counts after 24 h” value [2] does the source give for `O=C1O[C@H]([C@@H](O)CO)C(O)=C1O` [ascorbic acid alone, ascorbic acid] here?
A: 10^8 cfu/ml

Q: Which “half-time of decrease of NO release rate from the balloons” value [3] does the source give for `[N]=O` [NO, nitric oxide] here?
A: about 30 min
